Values after ≈ are worked out from the molar mass of the structure shown. Read-outs that look alike come from different tables or passages of the source.
What was measured:
L1210 = L1210 leukemia model in vivo (% ILS, survival time); parameters: species or system mouse; details: for ILS at 46.4 mg/kg: read-out: % ILS L1210
From the text: In the hollow fiber assay, both compounds were almost equally strongly active, while on L 1210 D-24851 was markedly more strongly active after oral and intraperitoneal administration than D-24241.

SK-OV-3 cell line = assay: XTT proliferation test/cytotoxicity test, SK-OV-3 cell line; format: cell-based; details: for EC50: Homo sapiens; for XTT EC50 SK-OV-3: SK-OV-3 tumor cells
Protocol: (§1) In this test system, the effect of substances on the proliferation behavior of tumor cell lines is investigated. In the course of this, the cytotoxic potential of these substances is determined. The test method is described in Scudiero et al. 1988, Cancer Res. 48, 4827.
(§2) The following tumor cell lines were employed in the investigations:
(§3) The KB cell line an epidermal carcinoma of the oral cavity,
(§4) the L1210 cell line a lymphatic leukemia of the mouse, the LNCAP cell line a prostate carcinoma and the SK-OV-3 cell line an ovarian carcinoma.

LNCAP cell line = assay: XTT proliferation test/cytotoxicity test, LNCAP cell line; format: cell-based; details: for EC50: Homo sapiens, read-out: XTT EC50 LNCaP
Protocol: as §1, §2, §3, §4

KB cell line = assay: XTT proliferation test/cytotoxicity test, KB cell line; format: cell-based; details: for EC50: Homo sapiens, KB, read-out: XTT EC50 KB
Protocol: as §1, §2, §3, §4

[1] = for Tox. p.o.: p.o. (Table 5)
L1210 cell line = assay: XTT proliferation test/cytotoxicity test, L1210 cell line; format: cell-based, mouse; details: for EC50: Mus musculus; for XTT EC50 L1210: L1210 tumor cells
Protocol: as §1, §2, §3, §4

[2] = SK-OV-3, SK-OV-3 tumor cells, read-out: XTT EC50 SK-OV-3
[3] = L1210, L1210 tumor cells, read-out: XTT EC50 L1210
[4] = SK-OV-3, read-out: XTT EC50 SK-OV-3
[5] = L1210, read-out: XTT EC50 L1210

O=c1[nH]cc(F)c(=O)[nH]1 [5-Fluorouracil, reference compound]
ILS at 147 mg/kg (L1210; Mus musculus, L1210, ip, 1 × 147 mg/kg i.p.): 72%
ILS at 68.1 mg/kg (L1210; Mus musculus, L1210, ip, 4 × 68.1 mg/kg i.p.): 83%

COc1cccc2c1C(=O)c1c(O)c3c(c(O)c1C2=O)C[C@@](O)(C(=O)CO)C[C@@H]3O[C@H]1C[C@H](N)[C@H](O)[C@H](C)O1 [Adriamycin, reference compound]
EC50 (SK-OV-3 cell line; [2]): 0.089 µg/mL (≈ 0.164 µM)
ILS at 14.7 mg/kg (L1210; Mus musculus, L1210, iv, 1 × 14.7 mg/kg i.v.): 111%
EC50 (LNCAP cell line; LNCaP tumor cells): 0.17 µg/mL (≈ 0.313 µM)
EC50 (KB cell line; KB tumor cells): 0.15 µg/mL (≈ 0.276 µM)
Tox. i.v. ([1]; i.v. (Table 5)): ≈27.0 i.v. mg/kg
EC50 (L1210 cell line; [3]): 0.174 µg/mL (≈ 0.32 µM)

N.N.O=C([O-])C1(C(=O)[O-])CCC1.[Pt+2] [Carboplatin]
% ILS L1210 (L1210; 1 × 100 mg/kg i.p.): 41% ILS
Tox. i.p. ([1]; i.p. (Table 5)): ≈158.0 mg/kg
Tox. p.o. [1]: ≈841.0 p.o mg/kg

N.N.[Cl][Pt][Cl] [Cisplatin, reference compound]
% ILS L1210 (L1210; 1 × 3.16 mg/kg i.p.): 38.9% ILS
XTT EC50 L1210 (L1210 cell line): L1210 0.30 μg/ml

O=P1(N(CCCl)CCCl)NCCCO1 (stereo not drawn) [Cyclophosphamide, reference compound]
ILS at 46.4 mg/kg (L1210; Mus musculus, L1210, iv): 40%
Tox. i.v. ([1]; i.v. (Table 5)): ≈340.7 i.v. mg/kg

C/C(=C\c1csc(C)n1)[C@@H]1C[C@@H]2O[C@]2(C)CCC[C@H](C)[C@H](O)[C@@H](C)C(=O)C(C)(C)[C@@H](O)CC(=O)O1 [Epothilone B, reference compound]
XTT EC50 SK-OV-3 (SK-OV-3 cell line): SKOV3 ~ 0.0031 μg/ml
% ILS L1210 (L1210; 1 × 10 mg/kg i.p.): 44% ILS
XTT EC50 LNCaP (LNCAP cell line; LNCaP tumor cells): LNCAR ~ 0.014 μg/ml
XTT EC50 KB (KB cell line; KB tumor cells): KB ~ 0.0002 μg/ml
Tox. i.p. ([1]; i.p. (Table 5)): ≈100.0 i.p. mg/kg
XTT EC50 L1210 (L1210 cell line): L1210 ~ 0.0017 μg/ml

COc1cc([C@@H]2c3cc4c(cc3[C@@H](O[C@@H]3O[C@@H]5CO[C@@H](C)O[C@H]5[C@H](O)[C@H]3O)[C@H]3COC(=O)[C@H]23)OCO4)cc(OC)c1O [Etoposide]
ILS at 46.4 mg/kg (L1210; Mus musculus, L1210, ip, 1 × 46.4 mg/kg i.p.): 56%
Tox. i.p. ([1]; in vivo, ip): ≈158.0 i.p. mg/kg
Tox. i.v. ([1]; in vivo, iv): >68.1 i.v. mg/kg

O=C(Nc1cccnc1)C(=O)c1cn(Cc2ccc(F)cc2)c2ccccc12 [Example 3, N-(Pyridin-3-yl)-[1-(4-fluorobenzyl)indol-3-yl]glyoxylamide]
EC50 (SK-OV-3 cell line; [2]): 1.75 µg/mL (≈ 4.69 µM)
EC50 (LNCAP cell line; LNCaP tumor cells): 9.25 µg/mL (≈ 24.8 µM)
EC50 (KB cell line; KB tumor cells): 1.75 µg/mL (≈ 4.69 µM)
EC50 (L1210 cell line; [3]): 1.75 µg/mL (≈ 4.69 µM)

O=C(Nc1cccnc1)C(=O)c1cn(Cc2ccccc2)c2ccccc12 [Example 4, N-(Pyridin-3-yl)-(1-benzylindol-3-yl)glyoxylamide]
EC50 (SK-OV-3 cell line; [4]): 9.2 µg/mL (≈ 25.9 µM)
EC50 (LNCAP cell line; LNCaP): > 31.6 µg/mL
EC50 (KB cell line): 17.5 µg/mL (≈ 49.2 µM)
EC50 (L1210 cell line; [5]): 1.75 µg/mL (≈ 4.92 µM)

O=C(Nc1ccc(F)cc1)C(=O)c1cn(Cc2ccc(F)cc2)c2ccccc12 [Example 6, N-(4-Fluorophenyl)-[1-(4-fluorobenzyl)indol-3-yl]glyoxylamide]
EC50 (SK-OV-3 cell line; [2]): 17.5 µg/mL (≈ 44.8 µM)
EC50 (LNCAP cell line; LNCaP tumor cells): > 31.6 µg/mL
EC50 (KB cell line; KB tumor cells): 3.1 µg/mL (≈ 7.94 µM)
EC50 (L1210 cell line; [3]): 1.75 µg/mL (≈ 4.48 µM)

O=C(Nc1ccncc1)C(=O)c1cn(Cc2ccccc2)c2ccccc12 [Example 9, N-(Pyridin-4-yl)-(1-benzylindol-3-yl)glyoxylamide]
EC50 (SK-OV-3 cell line; [4]): 1.75 µg/mL (≈ 4.92 µM)
EC50 (LNCAP cell line; LNCaP): 3.24 µg/mL (≈ 9.12 µM)
EC50 (KB cell line): 0.05 µg/mL (≈ 0.141 µM)
EC50 (L1210 cell line; [5]): 0.09 µg/mL (≈ 0.253 µM)

O=C(Nc1ccncc1)C(=O)c1cn(Cc2cccnc2)c2ccccc12 [Example 10, N-(Pyridin-4-yl)-[1-(3-pyridylmethyl)indol-3-yl]glyoxylamide]
EC50 (SK-OV-3 cell line; [2]): 7.22 µg/mL (≈ 20.3 µM)
EC50 (LNCAP cell line; LNCaP tumor cells): > 31.6 µg/mL
EC50 (KB cell line; KB tumor cells): 4.06 µg/mL (≈ 11.4 µM)
EC50 (L1210 cell line; [3]): 1.75 µg/mL (≈ 4.91 µM)

O=C(Nc1ccc(F)cc1)C(=O)c1cn(Cc2ccccn2)c2ccccc12 [Example 11, N-(4-Fluorophenyl)-[1-(2-pyridylmethyl)indol-3-yl]glyoxylamide]
EC50 (SK-OV-3 cell line; [2]): 4.25 µg/mL (≈ 11.4 µM)
EC50 (LNCAP cell line; LNCaP tumor cells): 17.5 µg/mL (≈ 46.9 µM)
EC50 (KB cell line; KB tumor cells): 4.59 µg/mL (≈ 12.3 µM)
EC50 (L1210 cell line; [3]): 1.75 µg/mL (≈ 4.69 µM)

O=C(Nc1ccc(F)cc1)C(=O)c1cn(Cc2cccnc2)c2ccccc12 [Example 12, N-(4-Fluorophenyl)-[1(3-pyridylmethyl)indol-3-yl]glyoxylamide]
EC50 (SK-OV-3 cell line; [2]): > 31.6 µg/mL
EC50 (LNCAP cell line; LNCaP tumor cells): > 31.6 µg/mL
EC50 (KB cell line; KB tumor cells): > 31.6 µg/mL
EC50 (L1210 cell line; [3]): 0.017 µg/mL (≈ 0.0455 µM)

O=C(Nc1ccncc1)C(=O)c1cn(Cc2ccccc2Cl)c2ccccc12 [Example 14, N-(Pyridin-4-yl)-[1-(2-chlorobenzyl)indol-3-yl]glyoxylamide]
EC50 (SK-OV-3 cell line; [2]): 2.58 µg/mL (≈ 6.62 µM)
EC50 (LNCAP cell line; LNCaP tumor cells): 17.5 µg/mL (≈ 44.9 µM)
EC50 (KB cell line; KB tumor cells): 1.75 µg/mL (≈ 4.49 µM)
EC50 (L1210 cell line; [3]): 1.75 µg/mL (≈ 4.49 µM)

O=C(Nc1ccccn1)C(=O)c1cn(Cc2ccc(F)cc2)c2ccccc12 [Example 15, N-(Pyridin-2-yl)-[1-(4-fluorobenzyl)indol-3-yl]glyoxylamide]
EC50 (SK-OV-3 cell line; [4]): > 31.6 µg/mL
EC50 (LNCAP cell line; LNCaP): > 31.6 µg/mL
EC50 (KB cell line): > 31.6 µg/mL
EC50 (L1210 cell line; [5]): 3.1 µg/mL (≈ 8.3 µM)

O=C(Nc1ccncc1)C(=O)c1cn(Cc2ccccn2)c2ccccc12 [Example 16, N-(Pyridin-4-yl)-[1-(2-pyridylmethyl)indol-3-yl]glyoxylamide]
EC50 (SK-OV-3 cell line; [2]): 4.25 µg/mL (≈ 11.9 µM)
EC50 (LNCAP cell line; LNCaP tumor cells): 17.5 µg/mL (≈ 49.1 µM)
EC50 (KB cell line; KB tumor cells): 4.59 µg/mL (≈ 12.9 µM)
EC50 (L1210 cell line; [3]): 1.75 µg/mL (≈ 4.91 µM)

O=P1(NCCCl)OCCCN1CCCl (stereo not drawn) [Ifosfamide, reference compound]
ILS at 316 mg/kg (L1210; Mus musculus, L1210, ip, 1 × x 316 mg/kg i.p.): 89%
Tox. i.p. ([1]; i.p. (Table 5)): ≈732 i.p. mg/kg

C[C@@H]1[O][Pt]2([NH]CC3CCC3C[NH]2)[O]C1=O (stereo partly drawn) [Lobaplatin, reference compound]
% ILS L1210 (L1210; 1 × 14.7 mg/kg ip): 55.0% ILS
Tox. i.p. ([1]; in vivo, ip): ≈34.0 i.p. mg/kg

CN(Cc1cnc2nc(N)nc(N)c2n1)c1ccc(C(=O)N[C@@H](CCC(=O)O)C(=O)O)cc1 [Methotrexate, reference compound]
EC50 (SK-OV-3 cell line; [2]): > 31.6 µg/mL
ILS at 53.7 mg/kg (L1210; Mus musculus, L1210, ip, 1 × 53.7 mg/kg i.p.): 39%
EC50 (KB cell line; KB tumor cells): ~0.007 µg/mL (≈ 0.0154 µM)

CCCCCCCCCCCCCCCCOP(=O)([O-])OCC[N+](C)(C)C [Miltefosine]
L1210 antitumor action (Table 5) (L1210; no dose given): no action
Tox. i.p. ([1]; i.p. (Table 5)): ≈46.4 i.p. mg/kg
Tox. p.o. [1]: ≈464-1000 mg/kg

O=C1c2c(O)ccc(O)c2C(=O)c2c(NCCNCCO)ccc(NCCNCCO)c21 [Mitoxantrone, reference compound]
EC50 (SK-OV-3 cell line; [2]): ~0.174 µg/mL (≈ 0.391 µM)
ILS at 4.64 mg/kg (L1210; Mus musculus, L1210, iv, 1 × 4.64 mg/kg i.v.): 144%
EC50 (LNCAP cell line; LNCaP tumor cells): ~0.017 µg/mL (≈ 0.0382 µM)
EC50 (KB cell line; KB tumor cells): ~0.174 µg/mL (≈ 0.391 µM)
Tox. i.v. ([1]; i.v. (Table 5)): 16 i.v. mg/kg
EC50 (L1210 cell line; [3]): < 0.0003 µg/mL

C/C=C/[C@@H]1O[C@H]([C@H](O)/C=C/C=C(\C)C[C@@H](C)/C=C(C)\C=C\[C@H]2CC=CC(=O)O2)C[C@@H](O)[C@@H]1C [Ratjadone, reference compound]
XTT EC50 SK-OV-3 (SK-OV-3 cell line): SKOV3 < 0.003 μg/ml
% ILS L1210 (L1210; 1 × 1.47 mg/kg i.p.): 22% ILS
XTT EC50 LNCaP (LNCAP cell line; LNCaP tumor cells): LNCAP < 0.003 μg/ml
XTT EC50 KB (KB cell line; KB tumor cells): KB < 0.003 μg/ml
Tox. i.p. ([1]; i.p. (Table 5)): ~16.0 mg/kg
Tox. i.v. ([1]; i.v. (Table 5)): ~30.0 i.v. mg/kg
XTT EC50 L1210 (L1210 cell line): L1210 < 0.003 μg/ml

CC[C@]1(O)C[C@H]2CN(CCc3c([nH]c4ccccc34)[C@@](C(=O)OC)(c3cc4c(cc3OC)N(C=O)[C@H]3[C@@](O)(C(=O)OC)[C@H](OC(C)=O)[C@]5(CC)C=CCN6CC[C@]43[C@@H]65)C2)C1 [Vincristine, reference compound]
EC50 (SK-OV-3 cell line; [2]): 0.003 µg/mL (≈ 0.00364 µM)
ILS at 1 mg/kg (L1210; Mus musculus, L1210, ip, 1 × 1.0 mg/kg i.p.): 29%
EC50 (LNCAP cell line; LNCaP, LNCaP tumor cells): 0.004 µg/mL (≈ 0.00485 µM)
EC50 (KB cell line; KB tumor cells): < 0.001 µg/mL
Tox. i.v. ([1]; i.v. (Table 5)): ≈3.0 i.v. mg/kg
EC50 (L1210 cell line; [3]): 0.004 µg/mL (≈ 0.00485 µM)

— US7579365B2 (ZIOPHRAM Oncology, Inc., priority 1998, dated 2009)
